Measurements published in US20060149064A1, “Process to prepare malayamycin derivatives” (priority 2003, published 2006).

Experiments:
[1] = system: Stagonospora nodorum (LEPTNO); test: Foliar protectant test against Stagonospora nodorum (LEPTNO) on wheat; format: in vivo; conditions: 100 ppm foliar spray on wheat; inoculated one day after application; banded assessment
Experimental: (§1) This Example illustrates the fungicidal properties of certain of the novel compounds of formula (I). The compounds were tested against a variety of foliar fungal diseases of plants. The technique employed was as follows. Plants were grown on an artificial, cellulose based growing medium. The test compounds were individually diluted in reverse osmosis water to a final concentration of 100 ppm in water (that is, 1 mg of compound in a final volume of 10 ml) immediately before use. TWEEN 20 (at a final concentration of 0.05% by volume) was added with the water to improve retention of the spray deposit. TWEEN is a registered trade mark. The compounds were applied to the foliage of the test plants by spraying the plant to maximum droplet retention. […] After chemical application and inoculation, the plants were incubated under high humidity conditions (except those inoculated with Blumeria graminis f. sp. tritici) and then put into an appropriate environment to allow infection to proceed until the disease was ready for assessment. […] However, each individual disease was assessed after the same time period for all compounds. […] The disease level present (the percentage leaf area covered by actively sporulating disease) was assessed visually. For each treatment, the assessed values for all its replicates were meaned to provide mean disease values. Untreated control plants were assessed in the same manner. […]

[2] = system: Blumeria graminis f. sp. tritici (ERYSGT); test: Foliar protectant test against Blumeria graminis f. sp. tritici (ERYSGT) on wheat; format: in vivo; conditions: 100 ppm foliar spray on wheat; inoculated 6 hours after application; banded assessment
Experimental: as §1

[3] = system: Puccinia triticina (PUCCRT); test: Foliar protectant test against Puccinia triticina (PUCCRT) on wheat; format: in vivo; conditions: 100 ppm foliar spray on wheat; inoculated one day after application; banded assessment
Experimental: as §1

melting point | SMILES | PRCO (percentage Disease Reduction from Control) LEPTNO 1 day Protectant [1] | PRCO (percentage Disease Reduction from Control) ERYSGT 6 hour Protectant [2] | PRCO (percentage Disease Reduction from Control) PUCCRT 1 day Protectant [3]
158 °C (dec.) | CO[C@@H]1CO[C@H]2C(O)[C@H](c3c[nH]c(=O)[nH]c3=O)O[C@@H]2[C@@H]1NC(N)=O (stereo partly shown) [Compound No. 1, malayamycin A] | – | – | –
– | CO[C@H]1CO[C@H]2C(O)[C@H](c3c[nH]c(=O)[nH]c3=O)O[C@@H]2[C@@H]1NC(N)=O (stereo partly drawn) [compound 2, 6-epi-malayamycin A] | 45 | 50 | 100
– | NC(=O)N[C@H]1[C@H]2O[C@@H](c3c[nH]c(=O)[nH]c3=O)C(O)[C@@H]2OC[C@H]1O (stereo partly shown) [compound 3, desmethylmalayamycin A] | 100 | 0 | 100
